Source: US8796256B2 (Janssen Pharmaceutica NV, priority 2010, dated 2014)

target: T1, ERR1 (also known as ERR-α or ERR-1) (Homo sapiens, UniProt P11474); assay: TR-FRET assay (disruption of co-activator peptide binding to ERR1 LBD); format: biochemical; settings: 6 nM 6His-ERR1LBD, 6 nM GST-SRC-2 peptide; average of 3 independent experiments
T1 sequence (P11474 193-421 limits assumed): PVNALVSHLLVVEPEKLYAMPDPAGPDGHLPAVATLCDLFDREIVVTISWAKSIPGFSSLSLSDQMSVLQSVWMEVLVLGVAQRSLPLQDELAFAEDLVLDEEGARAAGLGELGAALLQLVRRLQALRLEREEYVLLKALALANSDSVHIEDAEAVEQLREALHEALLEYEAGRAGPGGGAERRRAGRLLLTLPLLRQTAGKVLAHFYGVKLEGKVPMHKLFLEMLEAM
How it was run: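 Homogeneous TR-FRET measuring displacement of GST-hSRC2 co-activator peptide (6 nM) from His-tagged ERR1 LBD (6 nM), detected with α-GST Eu cryptate (30 nM) and α-His-XL665 (7.5 nM). Buffer 25 mM Tris pH 8, 2.5 mM Hepes, 20 mM KCl, 1 mM DTT, 0.05 mg/mL delipidated BSA; equilibration 4-18 h at 25° C. Hyperbolic dose-response fit, mean of 3 experiments.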

EC50	Structure (SMILES)
185 nM	CCOc1nn(Cc2ccc(Cl)cc2C(F)(F)F)c2ccc(/C=C3\SC(=O)N(CCN4CCCC4)C3=O)cc12 [Compound 33, (5Z)-5-({1-[4-Chloro-2-(trifluoromethyl)benzyl]-3-ethoxy-1H-indazol-5-yl}methylidene)-3-(2-pyrrolidin-1-ylethyl)-1,3-thiazolidine-2,4-dione]
23 nM	NS(=O)(=O)N1CCC(N2C(=O)S/C(=C\c3ccc4c(cnn4Cc4ccc(Cl)cc4C(F)(F)F)c3)C2=O)CC1 [Compound 34, 4-[(5Z)-5-({1-[4-Chloro-2-(trifluoromethyl)benzyl]-1H-indazol-5-yl}methylidene)-2,4-dioxo-1,3-thiazolidin-3-yl]piperidine-1-sulfonamide]
290 nM	O=C1S/C(=C\c2ccc3c(c2)c(O)nn3Cc2ccc(Cl)cc2C(F)(F)F)C(=O)N1CCN1CCCC1 [Compound 37, (5Z)-5-({1-[4-Chloro-2-(trifluoromethyl)benzyl]-3-oxo-2,3-dihydro-1H-indazol-5-yl}methylidene)-3-(2-pyrrolidin-1-ylethyl)-1,3-thiazolidine-2,4-dione]
43 nM	Cc1nn(Cc2ccc(Cl)cc2C(F)(F)F)c2ccc(/C=C3\SC(=O)N(CC(=O)NS(=O)(=O)N(C)C)C3=O)cc12 [Compound 39, 2-[(5Z)-5-({1-[4-Chloro-2-(trifluoromethyl)benzyl]-3-methyl-1H-indazol-5-yl}methylidene)-2,4-dioxo-1,3-thiazolidin-3-yl]-N-(dimethylsulfamoyl)acetamide]
9 nM	Cc1nn(Cc2ccc(Cl)cc2C(F)(F)F)c2ccc(/C=C3\SC(=O)N(CCN4CCCC4)C3=O)cc12 [Compound 41, (5Z)-5-({1-[4-Chloro-2-(trifluoromethyl)benzyl]-3-methyl-1H-indazol-5-yl}methylidene)-3-(2-pyrrolidin-1-ylethyl)-1,3-thiazolidine-2,4-dione]
46 nM	CC1(C)OCC(CN2C(=O)S/C(=C\c3ccc4c(cnn4Cc4ccc(Cl)cc4C(F)(F)F)c3)C2=O)O1 (centres unmarked) [Compound 42, (5Z)-5-({1-[4-Chloro-2-(trifluoromethyl)benzyl]-1H-indazol-5-yl}methylidene)-3-[(2,2-dimethyl-1,3-dioxolan-4-yl)methyl]-1,3-thiazolidine-2,4-dione]
16 nM	O=C1S/C(=C\c2ccc3c(cnn3Cc3ccc(Cl)cc3C(F)(F)F)c2)C(=O)N1CC(O)CO (centres unmarked) [Compound 43, (5Z)-5-({1-[4-Chloro-2-(trifluoromethyl)benzyl]-1H-indazol-5-yl}methylidene)-3-(2,3-dihydroxypropyl)-1,3-thiazolidine-2,4-dione]
72 nM	Cc1nn(Cc2ccc(Cl)cc2C(F)(F)F)c2ccc(/C=C3\SC(=O)N(CC(=O)NS(C)(=O)=O)C3=O)cc12 [Compound 44, 2-[(5Z)-5-({1-[4-Chloro-2-(trifluoromethyl)benzyl]-3-methyl-1H-indazol-5-yl}methylidene)-2,4-dioxo-1,3-thiazolidin-3-yl]-N-(methylsulfonyl)acetamide]
47 nM	CC(C)N(CCO)CCN1C(=O)S/C(=C\c2ccc3c(cnn3Cc3ccc(Cl)cc3C(F)(F)F)c2)C1=O [Compound 45, (5Z)-5-({1-[4-Chloro-2-(trifluoromethyl)benzyl]-1H-indazol-5-yl}methylidene)-3-{2-[(2-hydroxyethyl)(1-methylethyl)amino]ethyl}-1,3-thiazolidine-2,4-dione]
19 nM	CC(C)(C)NCCN1C(=O)S/C(=C\c2ccc3c(cnn3Cc3ccc(Cl)cc3C(F)(F)F)c2)C1=O [Compound 46, (5Z)-3-[2-(tert-Butylamino)ethyl]-5-({1-[4-chloro-2-(trifluoromethyl)benzyl]-1H-indazol-5-yl}methylidene)-1,3-thiazolidine-2,4-dione]
17 nM	CCNCCN1C(=O)S/C(=C\c2ccc3c(cnn3Cc3ccc(Cl)cc3C(F)(F)F)c2)C1=O [Compound 47, (5Z)-5-({1-[4-Chloro-2-(trifluoromethyl)benzyl]-1H-indazol-5-yl}methylidene)-3-[2-(ethylamino)ethyl]-1,3-thiazolidine-2,4-dione]
19 nM	CC(C)NCCN1C(=O)S/C(=C\c2ccc3c(cnn3Cc3ccc(Cl)cc3C(F)(F)F)c2)C1=O [Compound 48, (5Z)-5-({1-[4-Chloro-2-(trifluoromethyl)benzyl]-1H-indazol-5-yl}methylidene)-3-{2-[(1-methylethyl)amino]ethyl}-1,3-thiazolidine-2,4-dione]
25 nM	NCCN1C(=O)S/C(=C\c2ccc3c(cnn3Cc3ccc(Cl)cc3C(F)(F)F)c2)C1=O [Compound 49, 3-(2-Aminoethyl)-(5Z)-5-({1-[4-chloro-2-(trifluoromethyl)benzyl]-1H-indazol-5-yl}methylidene)-1,3-thiazolidine-2,4-dione]
40 nM	NS(=O)(=O)NCCN1C(=O)S/C(=C\c2ccc3c(cnn3Cc3ccc(Cl)cc3C(F)(F)F)c2)C1=O [Compound 50, N-{2-[(5Z)-5-({1-[4-Chloro-2-(trifluoromethyl)benzyl]-1H-indazol-5-yl}methylidene)-2,4-dioxo-1,3-thiazolidin-3-yl]ethyl}sulfamide]
26 nM	CN(CCO)CCN1C(=O)S/C(=C\c2ccc3c(cnn3Cc3ccc(Cl)cc3C(F)(F)F)c2)C1=O [Compound 51, (5Z)-5-({1-[4-Chloro-2-(trifluoromethyl)benzyl]-1H-indazol-5-yl}methylidene)-3-{2-[(2-hydroxyethyl)(methyl)amino]ethyl}-1,3-thiazolidine-2,4-dione]
27 nM	O=C1S/C(=C\c2ccc3c(cnn3Cc3ccc(Cl)cc3C(F)(F)F)c2)C(=O)N1CCNCCO [Compound 52, (5Z)-5-({1-[4-Chloro-2-(trifluoromethyl)benzyl]-1H-indazol-5-yl}methylidene)-3-{2-[(2-hydroxyethyl)amino]ethyl}-1,3-thiazolidine-2,4-dione]
39 nM	CC(C)C[C@H](N)CN1C(=O)S/C(=C\c2ccc3c(cnn3Cc3ccc(Cl)cc3C(F)(F)F)c2)C1=O [Compound 53, (5Z)-3-[(2S)-2-Amino-4-methylpentyl]-5-({1-[4-chloro-2-(trifluoromethyl)benzyl]-1H-indazol-5-yl}methylidene)-1,3-thiazolidine-2,4-dione]
37 nM	CC(C)C[C@@H](N)CN1C(=O)S/C(=C\c2ccc3c(cnn3Cc3ccc(Cl)cc3C(F)(F)F)c2)C1=O [Compound 54, (5Z)-3-[(2R)-2-Amino-4-methylpentyl]-5-({1-[4-chloro-2-(trifluoromethyl)benzyl]-1H-indazol-5-yl}methylidene)-1,3-thiazolidine-2,4-dione]
101 nM	O=C1S/C(=C\c2ccc3c(cnn3Cc3ccc(Cl)cc3C(F)(F)F)c2)C(=O)N1CCNS(=O)(=O)C(F)(F)F [Compound 55, N-{2-[(5Z)-5-({1-[4-Chloro-2-(trifluoromethyl)benzyl]-1H-indazol-5-yl}methylidene)-2,4-dioxo-1,3-thiazolidin-3-yl]ethyl}-1,1,1-trifluoromethanesulfonamide]
22 nM	N=C(N)NC(=O)CN1C(=O)S/C(=C\c2ccc3c(cnn3Cc3ccc(Cl)cc3C(F)(F)F)c2)C1=O [Compound 56, N-Carbamimidoyl-2-[(5Z)-5-({1-[4-chloro-2-(trifluoromethyl)benzyl]-1H-indazol-5-yl}methylidene)-2,4-dioxo-1,3-thiazolidin-3-yl]acetamide]
